Data set [1] is described as follows: Enzymatic hydrolysis of thioester bond in cytosol. In kind it is in vitro ADME. Particulars: GSH derivative 0, 16 mM; for enzymatic hydrolysis specific activity of thioester bond, Cytosol: mean ± SD on 6 tests. From the text:
(§1) |The enzymatic hydrolysis specific activity of thioester |bond is expressed as -SH released nmoles/min/mg of […]. […] Spontaneous hy- |drolysis of the substrates ranges from 1% to 10% maxi- |mum. […] |sts.

Data set [2] is described as follows: Enzymatic hydrolysis of thioester bond in serum. Format: in vitro ADME. The following applies: GSH derivative 0, 16 mM, mean ± SD on 6 tests.
From the text: as §1

6 compounds from patent US5382679A, “Process for the preparation of glutathione S-acyl derivatives, compounds obtained from said process and an intermediate useful for the preparation thereof” (Boehringer Mannheim Italia S.p.A., priority 1990, dated 1995) can be followed below.

Regarding `CC(=O)SC[C@H](NC(=O)CC[C@H](N)C(=O)O)C(=O)NCC(=O)O` [S-acetyl, γ-L-glutamyl-S-acetyl-L-cysteinyl-glycine], the “enzymatic hydrolysis specific activity of thioester bond, Cytosol” value in data set [1] is reported as 10,8 ± 1,5 -SH released nmoles/min/mg of. Besides, the “enzymatic hydrolysis specific activity of thioester bond, Serum” value in data set [2] is 0 -SH released nmoles/min/mg of.

In the case of `N[C@@H](CCC(=O)N[C@@H](CSC(=O)Cc1ccccc1)C(=O)NCC(=O)O)C(=O)O` [S-phenylacetyl, γ-L-glutamyl-S-phenylacetyl-L-cysteinyl-glycine], in data set [1], the “enzymatic hydrolysis specific activity of thioester bond, Cytosol” value is reported as 6,7 ± 0,9 -SH released nmoles/min/mg of and the “Ratio (intracellular to extracellular hydrolysis rate, Cytosol/Serum)” value was 134,0. In data set [2], the “enzymatic hydrolysis specific activity of thioester bond, Serum” value was 0,05 ± 0,003 -SH released nmoles/min/mg of.

Turning to `CCOC(=O)CNC(=O)[C@H](CSC(=O)c1ccccc1)NC(=O)CC[C@H](N)C(=O)O` [S-benzoyl-monoethylester, ethyl γ-L-glutamyl-S-benzoyl-L-cysteinyl glycinate], in data set [1], the “enzymatic hydrolysis specific activity of thioester bond, Cytosol” value is 0,6 ± 0,08 -SH released nmoles/min/mg of and the “Ratio (intracellular to extracellular hydrolysis rate, Cytosol/Serum)” value is given as 6,0. In data set [2], the “enzymatic hydrolysis specific activity of thioester bond, Serum” value is 0,10 ± 0,004 -SH released nmoles/min/mg of.

For `CCOC(=O)CNC(=O)[C@H](CSC(=O)c1ccccc1)NC(=O)CC[C@H](N)C(=O)OCC` [S-benzoyl-diethylester], in data set [1], the “enzymatic hydrolysis specific activity of thioester bond, Cytosol” value is on record as 1,45 ± 0,8 -SH released nmoles/min/mg of and the “Ratio (intracellular to extracellular hydrolysis rate, Cytosol/Serum)” value is 18,5. For the same compound, the “enzymatic hydrolysis specific activity of thioester bond, Serum” value in data set [2] is 0,07 ± 0,005 -SH released nmoles/min/mg of.

As to `N[C@@H](CCC(=O)N[C@@H](CSC(=O)c1ccccc1)C(=O)NCC(=O)O)C(=O)O` [S-benzoyl, γ-L-glutamyl-S-benzoyl-L-cysteinyl-glycine], in data set [1], the “enzymatic hydrolysis specific activity of thioester bond, Cytosol” value was 3,2 ± 1,1 -SH released nmoles/min/mg of and the “Ratio (intracellular to extracellular hydrolysis rate, Cytosol/Serum)” value is given as 80,0. In addition, the “enzymatic hydrolysis specific activity of thioester bond, Serum” value in data set [2] was 0,04 ± 0,005 -SH released nmoles/min/mg of.

For `CC(C)(C)C(=O)SC[C@H](NC(=O)CC[C@H](N)C(=O)O)C(=O)NCC(=O)O` [S-pivaloyl, γ-L-glutamyl-S-pivaloyl-L-cysteinyl-glycine], the “enzymatic hydrolysis specific activity of thioester bond, Cytosol” value in data set [1] is 6,9 ± 0,7 -SH released nmoles/min/mg of. Further, the “enzymatic hydrolysis specific activity of thioester bond, Serum” value in data set [2] is 0 -SH released nmoles/min/mg of.
